Experimental data as given in ChEMBL document CHEMBL1932968, “Cyclic amino acid linkers stabilizing key loops of brain derived neurotrophic factor” (Bioorg Med Chem Lett, 2012).
Activity calls are given as the source filed them. The rule behind the calls is not given here. *1 amine or outer side, *2 acyl side, *3 side chain or, on linkers, in order; H or OH if unused. Where a SMILES comes first, the peptide text is derived from it. [ ]: non-standard residue; d: D form. ACHC(1S,2S) = O=C([C@H]1CCCC[C@@H]1N[*:1])[*:2]; X2 = C[C@@]1(C(=O)[*:2])CCN1[*:1]; X1 = C[C@]1(C(=O)[*:2])CCN1[*:1]; Aze = O=C(O)[C@@H]1CCN1; βAla = NCCC(=O)O

Experiments:
[1] = target: BDNF/NT-3 growth factors receptor (Rattus norvegicus) (UniProt Q63604); experiment: Agonist activity at TrkB in E18 Sprague-Dawley rat hippocampal neurons assessed as induction of TrkB autophosphorylation at Tyr490 at 100 uM after 1 hr by Western blotting analysis; type: functional, tissue-based; conditions: Hippocampus
[2] = target: BDNF/NT-3 growth factors receptor (Rattus norvegicus) (UniProt Q63604); experiment: Antagonist activity at TrkB in E18 Sprague-Dawley rat hippocampal neurons assessed as inhibition of BDNF-induced TrkB phosphorylation at Tyr490 at 100 uM preincubated for 1 hr followed by BDNF induction for 10 mins by Western blotting analysis; type: functional, tissue-based; conditions: Hippocampus

BDNF/NT-3 growth factors receptor (Rattus norvegicus), sequence (Q63604 whole entry): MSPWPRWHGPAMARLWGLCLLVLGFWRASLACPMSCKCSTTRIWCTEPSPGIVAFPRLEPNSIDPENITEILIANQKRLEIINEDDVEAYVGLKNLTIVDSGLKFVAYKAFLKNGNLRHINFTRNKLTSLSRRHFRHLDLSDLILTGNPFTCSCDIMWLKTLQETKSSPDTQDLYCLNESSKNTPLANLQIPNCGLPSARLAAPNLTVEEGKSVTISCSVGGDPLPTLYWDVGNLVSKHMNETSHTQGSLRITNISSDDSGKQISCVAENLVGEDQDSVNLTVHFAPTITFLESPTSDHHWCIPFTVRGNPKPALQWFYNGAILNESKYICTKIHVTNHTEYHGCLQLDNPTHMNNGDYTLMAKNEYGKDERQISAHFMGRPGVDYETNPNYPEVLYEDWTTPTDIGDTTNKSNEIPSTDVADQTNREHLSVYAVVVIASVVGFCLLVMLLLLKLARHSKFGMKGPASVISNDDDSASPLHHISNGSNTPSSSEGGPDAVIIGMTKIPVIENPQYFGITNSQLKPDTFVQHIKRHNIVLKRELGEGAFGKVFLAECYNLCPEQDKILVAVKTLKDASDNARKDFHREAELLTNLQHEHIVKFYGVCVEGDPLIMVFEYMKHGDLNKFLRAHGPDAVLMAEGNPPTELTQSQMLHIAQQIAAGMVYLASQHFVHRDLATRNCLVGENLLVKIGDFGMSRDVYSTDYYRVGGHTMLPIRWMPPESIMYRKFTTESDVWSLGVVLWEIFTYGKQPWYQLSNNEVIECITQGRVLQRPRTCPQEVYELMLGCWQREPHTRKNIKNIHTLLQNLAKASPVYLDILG

SMILES | Activity [1] | inhibition [2]
CC(C)[C@@H]1NC(=O)[C@@]2(C)CCN2C(=O)CCNC(=O)[C@H](CCCCN)NC(=O)[C@H](CO)NC1=O | inactive | inactive
N=C(N)NCCC[C@@H]1NC(=O)[C@H](CCCCN)NC(=O)[C@H](CCCCN)NC(=O)[C@H](CO)NC(=O)[C@H](CC(=O)O)NC(=O)[C@H]2CCCC[C@@H]2NC1=O (cyclo(DSKKR[ACHC(1S,2S)])) | inactive | Active
CC(C)[C@@H]1NC(=O)C2(C)CCN2C(=O)CNC(=O)[C@H](CCCCN)NC(=O)[C@H](CO)NC1=O (mixture of isomers) | inactive | inactive
CC(C)[C@@H]1NC(=O)[C@@H]2CCN2C(=O)CNC(=O)[C@H](CCCCN)NC(=O)[C@H](CO)NC1=O (cyclo([Aze]VSKG)) | inactive | inactive
CC(C)[C@@H]1NC(=O)[C@]2(C)CCN2C(=O)CNC(=O)[C@H](CCCCN)NC(=O)[C@H](CO)NC(=O)[C@H](C(C)C)NC(=O)[C@@]2(C)CCN2C(=O)CNC(=O)[C@H](CCCCN)NC(=O)[C@H](CO)NC1=O (cyclo(G[X1]VSKG[X2]VSK)) | inactive | Active
CC(C)[C@@H]1NC(=O)[C@H]2CCCC[C@@H]2NC(=O)CCNC(=O)[C@H](CCCCN)NC(=O)[C@H](CO)NC1=O | inactive | inactive
CC(C)[C@@H]1NC(=O)[C@H]2CCCC[C@@H]2NC(=O)CNC(=O)[C@H](CCCCN)NC(=O)[C@H](CO)NC1=O (cyclo(G[ACHC(1S,2S)]VSK)) | inactive | inactive
CC(C)[C@@H]1NC(=O)[C@@H]2CCN2C(=O)CCNC(=O)[C@H](CCCCN)NC(=O)[C@H](CO)NC1=O (cyclo([Aze]VSK[βAla])) | inactive | inactive
N=C(N)NCCC[C@@H]1NC(=O)[C@H]2CCCC[C@@H]2NC(=O)[C@H](CC(=O)O)NC(=O)[C@H](CO)NC(=O)[C@H](CCCCN)NC(=O)[C@H](CCCCN)NC(=O)[C@H](CCCNC(=N)N)NC(=O)[C@H]2CCCC[C@@H]2NC(=O)[C@H](CC(=O)O)NC(=O)[C@H](CO)NC(=O)[C@H](CCCCN)NC(=O)[C@H](CCCCN)NC1=O (cyclo(D[ACHC(1S,2S)]RKKSD[ACHC(1S,2S)]RKKS)) | inactive | Active
CC(C)[C@@H]1NC(=O)[C@]2(C)CCN2C(=O)CCNC(=O)[C@H](CCCCN)NC(=O)[C@H](CO)NC1=O | inactive | inactive
CC(C)[C@@H]1NC(=O)[C@@H]2CCN2C(=O)CNC(=O)[C@H](CCCCN)NC(=O)[C@H](CO)NC(=O)[C@H](C(C)C)NC(=O)[C@@H]2CCN2C(=O)CNC(=O)[C@H](CCCCN)NC(=O)[C@H](CO)NC1=O (cyclo([Aze]VSKG[Aze]VSKG)) | inactive | 
CC(C)[C@@H]1NC(=O)[C@H]2CCCC[C@@H]2NC(=O)CNC(=O)[C@H](CCCCN)NC(=O)[C@H](CO)NC(=O)[C@H](C(C)C)NC(=O)[C@H]2CCCC[C@@H]2NC(=O)CNC(=O)[C@H](CCCCN)NC(=O)[C@H](CO)NC1=O (cyclo(G[ACHC(1S,2S)]VSKG[ACHC(1S,2S)]VSK)) | inactive | 
CC(C)[C@@H]1NC(=O)[C@H]2CCCC[C@@H]2NC(=O)CCNC(=O)[C@H](CCCCN)NC(=O)[C@H](CO)NC(=O)[C@H](C(C)C)NC(=O)[C@H]2CCCC[C@@H]2NC(=O)CCNC(=O)[C@H](CCCCN)NC(=O)[C@H](CO)NC1=O (cyclo(K[βAla][ACHC(1S,2S)]VSK[βAla][ACHC(1S,2S)]VS)) | inactive | 
